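A five-concentration, 48-hour dose response in 96-well plates underlies each endpoint, interpolated linearly between surrounding concentrations. The concentration for 50% growth inhibition is given as GI50. TGI is the concentration that stops growth completely.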
What was measured:
Experiment in all cases: NCI-60 cell line screen, 48 h
[1] = test system: DU-145 prostate
[2] = test system: SN12C renal
[3] = test system: HCT-15 colon
[4] = test system: NCI-H23 lung
[5] = test system: IGROV1 ovarian
[6] = test system: NCI-H460 lung
[7] = test system: HT29 colon
[8] = test system: U251 CNS
[9] = test system: M14 melanoma
[10] = test system: 786-0 renal
[11] = test system: MOLT-4 leukemia
[12] = test system: LOX IMVI melanoma
[13] = test system: UO-31 renal
[14] = test system: MDA-MB-231 breast
[15] = test system: MDA-N
[16] = test system: UACC-62 melanoma
[17] = test system: HOP-92 NSCLC
[18] = test system: HOP-62 NSCLC
[19] = test system: COLO 205 colon
[20] = test system: SK-MEL-5 melanoma
[21] = test system: HCC-2998 colon
[22] = test system: SW-620 colon
[23] = test system: SNB-19 CNS
[24] = test system: CCRF-CEM leukemia
[25] = test system: TK-10 renal
[26] = test system: SNB-75 CNS
[27] = test system: NCI-H522 lung
[28] = test system: BT-549 breast
[29] = test system: OVCAR-8 ovarian
[30] = test system: NCI/ADR-RES ovarian
[31] = test system: SF-539 CNS
[32] = test system: K-562 leukemia
[33] = test system: PC-3 prostate
[34] = test system: EKVX NSCLC
[35] = test system: OVCAR-5 ovarian
[36] = test system: SF-268 CNS
[37] = test system: KM12 colon
[38] = test system: SK-MEL-28 melanoma
[39] = test system: A549 NSCLC
[40] = test system: HL-60(TB) leukemia
[41] = test system: HCT-116 colon
[42] = test system: SK-OV-3 ovarian
[43] = test system: T-47D breast
[44] = test system: SR leukemia
[45] = test system: MCF7 breast
[46] = test system: UACC-257 melanoma
[47] = test system: SF-295 CNS
[48] = test system: OVCAR-3 ovarian
[49] = test system: OVCAR-4 ovarian
[50] = test system: MDA-MB-435
[51] = test system: NCI-H226 lung
[52] = test system: RPMI-8226 leukemia
[53] = test system: A498 renal
[54] = test system: SK-MEL-2 melanoma
[55] = test system: RXF 393 renal
[56] = test system: CAKI-1 renal
[57] = test system: ACHN renal
[58] = test system: HS 578T breast
[59] = test system: MALME-3M melanoma

## OCCSCCCSCCO
[1]
  TGI: > 100 µM
[2]
  TGI: > 100 µM
[3]
  TGI: > 100 µM
[4]
  TGI: > 100 µM
[5]
  TGI: > 100 µM
[6]
  TGI: > 100 µM
[7]
  TGI: > 100 µM
[8]
  TGI: > 100 µM
[9]
  TGI: > 100 µM
[10]
  TGI: > 100 µM
[11]
  TGI: > 100 µM
[12]
  TGI: > 100 µM
[13]
  TGI: > 100 µM
[14]
  TGI: > 100 µM
[15]
  TGI: > 100 µM
[16]
  TGI: > 100 µM
[17]
  TGI: 98.8 µM
[18]
  TGI: > 100 µM
[19]
  TGI: > 100 µM
[20]
  TGI: > 100 µM
[21]
  TGI: > 100 µM
[22]
  TGI: > 100 µM
[23]
  TGI: > 100 µM
[24]
  TGI: > 100 µM
[25]
  TGI: > 100 µM
[26]
  TGI: > 100 µM
[27]
  TGI: > 100 µM
[28]
  TGI: > 100 µM
[29]
  TGI: > 100 µM
[30]
  TGI: > 100 µM
[31]
  TGI: > 100 µM
[32]
  TGI: > 100 µM
[33]
  TGI: > 100 µM
[34]
  TGI: > 100 µM
[35]
  TGI: > 100 µM
[36]
  TGI: > 100 µM
[37]
  TGI: > 100 µM
[38]
  TGI: > 100 µM
[39]
  TGI: > 100 µM
[40]
  TGI: 80.7 µM
[41]
  TGI: > 100 µM
[42]
  TGI: > 100 µM
[43]
  TGI: > 100 µM
[44]
  TGI: > 100 µM
[45]
  TGI: > 100 µM
[46]
  TGI: > 100 µM
[47]
  TGI: > 100 µM
[48]
  TGI: > 100 µM
[49]
  TGI: > 100 µM

## CC1(C)OCC2OC3([C@H](O)CCO)OC(C)(C)OC3C2O1 (some centres not stated)
[1]
  TGI: > 100 µM
[2]
  TGI: > 100 µM
[3]
  TGI: > 100 µM
[4]
  TGI: > 100 µM
[5]
  TGI: > 100 µM
[6]
  TGI: > 100 µM
[7]
  TGI: > 100 µM
[8]
  TGI: > 100 µM
[9]
  TGI: > 100 µM
[10]
  TGI: > 100 µM
[11]
  TGI: > 100 µM
[12]
  TGI: > 100 µM
[13]
  TGI: > 100 µM
[14]
  TGI: > 100 µM
[50]
  TGI: > 100 µM
[15]
  TGI: > 100 µM
[16]
  TGI: > 100 µM
[17]
  TGI: > 100 µM
[18]
  TGI: > 100 µM
[19]
  TGI: > 100 µM
[20]
  TGI: > 100 µM
[51]
  TGI: > 100 µM
[21]
  TGI: > 100 µM
[22]
  TGI: > 100 µM
[23]
  TGI: > 100 µM
[24]
  TGI: > 100 µM
[52]
  TGI: > 100 µM
[26]
  TGI: > 100 µM
[53]
  TGI: > 100 µM
[28]
  TGI: > 100 µM
[29]
  TGI: > 100 µM
[30]
  TGI: > 100 µM
[31]
  TGI: > 100 µM
[32]
  TGI: > 100 µM
[33]
  TGI: > 100 µM
[54]
  TGI: > 100 µM
[34]
  TGI: > 100 µM
[35]
  TGI: > 100 µM
[37]
  TGI: > 100 µM
[55]
  TGI: > 100 µM
[38]
  TGI: > 100 µM
[39]
  TGI: > 100 µM
[41]
  TGI: > 100 µM
[43]
  TGI: > 100 µM
[44]
  TGI: > 100 µM
[45]
  TGI: > 100 µM
[46]
  TGI: > 100 µM
[56]
  TGI: > 100 µM
[57]
  TGI: > 100 µM
[47]
  TGI: > 100 µM
[48]
  TGI: > 100 µM
[49]
  TGI: > 100 µM

## CCOC(=O)/C=C1\SC(=Nc2ccc(C#N)cc2)N(CCN2C(=O)/C(=C/C(=O)OCC)SC2=Nc2ccc(C#N)cc2)C1=O
[1]
  GI50: 3.04 µM
  TGI: 13.6 µM
[2]
  GI50: 2.58 µM
  TGI: 16.6 µM
[3]
  GI50: 0.408 µM
  TGI: 2.53 µM
[4]
  GI50: 3.52 µM
  TGI: 18.1 µM
[5]
  GI50: 1.99 µM
  TGI: 10.7 µM
[6]
  GI50: 1.81 µM
  TGI: 7.35 µM
[7]
  GI50: 1.11 µM
  TGI: 10.1 µM
[8]
  GI50: 0.554 µM
  TGI: 1.94 µM
[9]
  GI50: 3.3 µM
  TGI: 18.2 µM
[10]
  GI50: 2.08 µM
  TGI: 6.33 µM
[11]
  GI50: 1.15 µM
  TGI: > 100 µM
[12]
  GI50: 0.585 µM
  TGI: 1.28 µM
[13]
  GI50: 2 µM
  TGI: 11.3 µM
[14]
  GI50: 2.09 µM
  TGI: 7.85 µM
[50]
  GI50: 3.21 µM
  TGI: 16 µM
[16]
  GI50: 3.25 µM
  TGI: 17.9 µM
[17]
  GI50: 13.7 µM
  TGI: 36.5 µM
[18]
  GI50: 2.55 µM
  TGI: 8.39 µM
[19]
  GI50: 3.05 µM
  TGI: 11.5 µM
[20]
  GI50: 5.43 µM
  TGI: 18.9 µM
[51]
  GI50: 3.53 µM
  TGI: 14.3 µM
[21]
  GI50: 2.4 µM
  TGI: 6.61 µM
[22]
  GI50: 0.416 µM
  TGI: 2.63 µM
[23]
  GI50: 2.12 µM
  TGI: 12.9 µM
[24]
  GI50: 0.613 µM
  TGI: 16.9 µM
[25]
  GI50: 14.8 µM
  TGI: 36.6 µM
[52]
  GI50: 0.415 µM
  TGI: 2.99 µM
[58]
  GI50: 3.84 µM
  TGI: > 70.5 µM
[26]
  GI50: 5.02 µM
  TGI: 36.1 µM
[53]
  GI50: 6.82 µM
  TGI: 20.5 µM
[27]
  GI50: 6.56 µM
  TGI: 24.3 µM
[28]
  GI50: 2.98 µM
  TGI: 16.4 µM
[29]
  GI50: 3.65 µM
  TGI: > 63.8 µM
[30]
  GI50: 3.21 µM
  TGI: 42.3 µM
[31]
  GI50: 3.53 µM
  TGI: 12.8 µM
[32]
  GI50: 0.786 µM
  TGI: > 100 µM
[33]
  GI50: 1.28 µM
  TGI: 13.4 µM
[54]
  GI50: 12.1 µM
  TGI: 28.8 µM
[34]
  GI50: 5.2 µM
  TGI: 28.7 µM
[35]
  GI50: 6.75 µM
  TGI: 30.8 µM
[36]
  GI50: 1.94 µM
  TGI: 16.1 µM
[37]
  GI50: 1.17 µM
  TGI: 5.48 µM
[55]
  GI50: 2.61 µM
  TGI: 9.39 µM
[59]
  GI50: 11 µM
  TGI: 30 µM
[38]
  GI50: 8.86 µM
  TGI: 27.5 µM
[39]
  GI50: 15.4 µM
  TGI: 51.2 µM
[40]
  GI50: 2.66 µM
  TGI: 25.6 µM
[41]
  GI50: 0.441 µM
  TGI: 2.38 µM
[42]
  GI50: 15.3 µM
  TGI: 41.7 µM
[43]
  GI50: 2.37 µM
  TGI: 41.2 µM
[44]
  GI50: 0.303 µM
  TGI: > 100 µM
[45]
  GI50: 0.353 µM
  TGI: 17.7 µM
[46]
  GI50: 14 µM
  TGI: 36.4 µM
[56]
  GI50: 3.57 µM
  TGI: 14.9 µM
[57]
  GI50: 4.62 µM
  TGI: 17.9 µM
[47]
  GI50: 5.59 µM
  TGI: 25.6 µM
[48]
  GI50: 0.795 µM
  TGI: 3.27 µM
[49]
  GI50: 2.28 µM
  TGI: 29.9 µM
